{"source": "patent US9532569B2", "about": "(INSTITUT NATIONAL DE LA RECHERCHE AGRONOMIQUE, priority 2012, dated 2017)", "key": {"pea mutant rms1": {"system": "pea mutant rms1", "test": "Inhibition of branching in the pea, application directly on the axillary bud", "format": "in vivo, Pisum sativum L.", "conditions": "for bud growth inhibition (length of bud/branch at node 3, 8 days after treatment at node 3): Experiment 3, FIG. 5", "method": "Generally, in the pea, the first two scales are considered to be the first two nodes, the cotyledonary node being node 0.\nThe rms1 mutant is an “SMS” signal biosynthesis mutant, repressing branching of the plant.\nTests for activity on the inhibition of branching were carried out in the following way.\nThe strigolactone-deficient rms1 (ccd8) pea mutants described in Beveridge et al., 1997, were used for the test (M3T884 line derived from the Térèse variety).\nThe activity of the compounds (IIa), (II′d) and (II′e) in accordance with the invention and of the comparative compound GR24 was evaluated at respective doses of 10 nM, 100 nM and 1 μM, by treatment at node 3. […]\n24 plants were sown per treatment. 8 days after sowing, the treatment was carried out on the axillary bud at node 3, by application of 10 μl of each solution to be tested, directly on the bud, by means of a micropipette. The lateral outgrowths at nodes 1 and 2 were removed in order to encourage the growth of the axillary buds at the higher nodes. […]\nThe activity of the compounds (IIa), (IIb), (IIc), (II′d), (II′e) and (II′f) in accordance with the invention was evaluated at respective doses of 100 nM and 1 μM, by treatment at node 3.\nFor this, solutions containing each compound to be tested, in 1% acetone, 4% propylene glycol 1450 and 50% ethanol, were used.\nThe activity of the compounds (IIa), (IIIa), (IIIb) and (IIIc) in accordance with the invention, and also of GR24 as comparative compound, was evaluated at respective doses of 100 nM and 1 μM, by treatment at node 3, according to the protocol described above with reference to experiment 2.\nA sample consisting only of the solvent, and without active compound, was also tested as negative control, termed “CTL 0”.\nIn this experiment, the activity of the compound (IIIa) in accordance with the invention, and also of GR24 as comparative compound, was evaluated at respective doses of 1 nM, 10 nM, 100 nM and 1 μM, by treatment at node 3, according to the protocol described above with reference to experiment 2, for doses of 10 nM, 100 nM and 1 μM of compounds.\nA sample consisting only of the solvent, and without active compound (“CTL 0”) was also tested as a negative control. A nontreated (“NT”) control was also carried out.\nA dose-response test for evaluating the activity of the compounds by deposition at node 3 was carried out according to the protocol described above with reference to experiment 2, for the compound in accordance with the invention (IIa) and for the comparative compounds GR24, Comp. 3 and Comp. 4. Concentrations of 10 nM, 100 nM and 1 μM were tested.\nA sample consisting only of the solvent, and without active compound (“CTL 0”), was also tested as a negative control. A nontreated (“NT”) control was also carried out.\nA dose-response test for evaluating the activity of the compounds by deposition at node 3 was carried out according to the protocol described above with reference to experiment 2, for the compound in accordance with the invention (IIa) and for the comparative compounds GR24, Comp. 5 and Comp. 6. Concentrations of 10 nM and 100 nM were tested. […]\nThe sprouting of the axillary buds at node 4 was measured 8 days after the treatment by means of a digital sliding caliper.\nThe activity of the compound (IIIa) in accordance with the invention on bud growth at node 3 was evaluated at a dose of 1000 nM by treatment at node 3. The GR24 compound was tested at the same concentration as comparative compound. […]"}, "MRC5 cells": {"system": "MRC5 cells", "test": "In vitro cytotoxicity study on MRC5 cells (MTS)", "format": "cell-based, human", "conditions": "Homo sapiens, MRC5, 72 hours, ± standard error, read-out: Percentage inhibition of MRC5 cell growth", "method": "The cytotoxicity of the compound (IIa) according to the invention, and that of GR24 and of GR5 as comparative compounds, was evaluated in vitro, at concentrations of 10^−4 M and 10^−5 M, on MRC5 cells, in DMSO, in the following way.\nMRC5 cells (human lung (fibroblasts) were cultured in Dulbecco's modified Eagle medium (DMEM) supplemented with: 25 mM of glucose, 10% (v/v) of fetal calf serum, 100 IU of penicillin, 100 μg/ml of streptomycin and 1.5 μg/ml of fungizone, and kept under 5% of CO2 at 37° C.\n96-well plates were seeded with 2100 MRC5 cells per well in 200 μl of medium. After 24 hours, each of the compounds dissolved in DMSO was added for 72 hours, at a final concentration of 10^−4 M or 10^−5 M in a fixed volume of DMSO. The controls received an equal volume of DMSO.\nThe viable cell number was measured at 490 nm with the MTS reagent (Promega), and, for each compound, the concentration causing 50% inhibition of cell growth, IC50, was calculated."}, "pea rms1 mutants": {"system": "pea rms1 mutants", "test": "Hydroponic culture test in pea", "format": "in vivo, Pisum sativum L.", "conditions": "3 μM in hydroponic culture solution, 8 days", "method": "For this example, ramosus (rms1) hyperbranched pea (Pisum sativum L.) mutants were used.\nMore particularly, rms1 (rms1-10) hyperbranched mutant plants were used. The nutritive solution (100%) was prepared by adding the following macronutrients to 1000 l of water: HNO3 (0.28 l), (NH4)2HPO4 (120 g), Ca(NO3)2 (40 g), Mg(NO3)2 (140 g), KNO3 (550 g), (NH4)2MoO4 (0.05 g), H3BO3 (15 g), MnSO4.H2O (2 g), ZnSO4.7H2O (1 g), CuSO4.5H2O (0.25 g), Sequestrene® (10 g) (Fe-EDTA solution). The pea seeds were germinated in moist sand for 6 days, then placed in holes of a lid (35 holes/lid, 20 mm in diameter) of an opaque PVC pot containing the hydroponic culture solution (47 l, pH 5.8).\nIn a first experiment, acetone or the compound to be tested (dissolved in acetone) was added to the hydroponic culture solution so as to obtain a final concentration of 0 or 1 μM of compound to be tested and 0.01% of acetone.\nThe hydroponic culture solution was continually aerated by means of an aquarium pump and replaced each week. 8 days after the start of the treatment, the lengths of bud/branch (nodes 1 to 6) were measured with an electronic sliding caliper.\nThis experiment was carried out for the compounds according to the invention (IIa) and (IIIb), and also the GR24 compound as comparative compound. A negative control (<<CTL 0>>), corresponding to a treatment with the solvent alone, was also carried out.\nThe results (mean data on 20 plants), in terms of, on the one hand, length of the branches at nodes 3 to 5 and, on the other hand, plant height, are shown respectively in FIGS. 11 and 12.\nThe same experiment was carried out for the compound in accordance with the invention (II″g) and the comparative compound GR24. Dimethyl sulfoxide (DMSO) or the compound to be tested, dissolved in DMSO, was added to the hydroponic culture solution so as to obtain a final concentration of 0 or 3 μM of compound to be tested and 0.01% of DMSO.\nThe results (mean data on 10 to 12 plants), in terms, on the one hand, of length of the branches at nodes 3 to 4 and, on the other hand, of plant height, are shown respectively in FIGS. 13 and 14."}, "[1]": {"conditions": "Experiment 2, FIG. 4, 100 nM and 1 μM"}, "[2]": {"conditions": "Experiment 1, FIG. 3, concentration of 1 μM"}}}
{"molecule": "CC(C=O)=COC1OC(=O)C(C)=C1C", "note": "(centres unmarked) [Compound (IIIa), 3-((3,4-dimethyl-5-oxo-2,5-dihydrofuran-2-yl)oxy)-2-methylacrylaldehyde]", "values": [{"measurement": "bud growth inhibition (length of bud/branch at node 3, 8 days after treatment at node 3)", "setting": "pea mutant rms1; 100 nM and 1 μM", "value": "slightly less active, exhibit, however, a high activity in terms of bud growth inhibition"}, {"measurement": "inhibitory activity on bud growth at node 3 (length of bud/branch 8 days after treatment at node 3)", "setting": "pea mutant rms1; Experiment 8, FIG. 10, 1000 nM", "value": "although less than that of GR24, is highly significant"}]}
{"molecule": "CC1=C(C)C(Sc2ccc(Br)cc2)OC1=O", "note": "(centres unmarked)", "values": [{"measurement": "inhibitory activity on bud growth (length of bud/branch at node 3, 8 days after treatment at node 3)", "setting": "pea mutant rms1; [1]", "value": "most active"}]}
{"molecule": "CC1=C(C)C(Oc2ccc(Br)cc2)OC1=O", "note": "(centres unmarked) [Compound (II′e), 5-(4-bromophenoxy)-3,4-dimethylfuran-2(5H)-one]", "values": [{"measurement": "inhibitory activity on bud growth (length of bud/branch at node 3, 8 days after treatment at node 3)", "setting": "pea mutant rms1; [2]", "value": "exhibit an inhibitory activity on bud growth at node 3"}]}
{"molecule": "CC1=CC(O/C=C2\\CCOC2=O)OC1=O", "note": "(centres unmarked) [GR5]", "values": [{"measurement": "inhibition at 100 µM", "setting": "MRC5 cells; 10^−4M", "value": "66 ± 1", "unit": "%"}, {"measurement": "inhibition at 10 µM", "setting": "MRC5 cells; 10^−5M", "value": 0, "unit": "%"}]}
{"molecule": "CC1=C(C)C(Oc2ccc3ccc(=O)oc3c2)OC1=O", "note": "(centres unmarked) [Compound (II″g), 7-[3,4-dimethylfuran-2(5H)-one]oxycoumarin]", "values": [{"measurement": "length of the branches at nodes 3 to 4", "setting": "pea rms1 mutants; FIG. 13", "value": "an activity on all the branches of nodes 3 to 4, and also an effect on plant height, which are both greater than those of the comparative compound GR24"}, {"measurement": "plant height", "setting": "pea rms1 mutants; FIG. 14", "value": "an effect on plant height, which are both greater than those of the comparative compound GR24"}]}
{"molecule": "CC1=C(C)C(Oc2ccc(Cl)cc2)OC1=O", "note": "(centres unmarked) [Compound (II′d), 5-(4-chlorophenoxy)-3,4-dimethylfuran-2(5H)-one]", "values": [{"measurement": "inhibitory activity on bud growth (length of bud/branch at node 3, 8 days after treatment at node 3)", "setting": "pea mutant rms1; [2]", "value": "exhibit an inhibitory activity on bud growth at node 3"}]}
{"molecule": "C=C/C(C)=C/OC1OC(=O)C(C)=C1C", "note": "(centres unmarked) [Compound (IIIc), (E)-3,4-dimethyl-5-((2-methylbuta-1,3-dien-1-yl)oxy)furan-2(5H)-one]", "values": [{"measurement": "bud growth inhibition (length of bud/branch at node 3, 8 days after treatment at node 3)", "setting": "pea mutant rms1; 100 nM and 1 μM", "value": "slightly less active, exhibit, however, a high activity in terms of bud growth inhibition"}]}
{"molecule": "CC1=C(C)C(Sc2ccc(C(F)(F)F)cc2)OC1=O", "note": "(centres unmarked) [Compound (IIc), 3,4-dimethyl-5-((4-(trifluoromethyl)phenyl)thio)furan-2(5H)-one]", "values": [{"measurement": "inhibitory activity on bud growth (length of bud/branch at node 3, 8 days after treatment at node 3)", "setting": "pea mutant rms1; [1]", "value": "most active"}]}
